Laboratory results taken from US7795305B2, “CDDO-compounds and combination therapies thereof” (Board of Regents, The University of Texas System, priority 2000, dated 2010).
Like-named read-outs stand apart in the source and are kept apart here.

What was measured:
[1] = Description: Subacute toxicity studies. An important aspect of this invention of CDDO-compounds and its combination therapies with other chemotherapeutics is to assess the toxicity and relative therapeutic efficacy of CDDO-compounds. The preliminary toxicity (i.e. determination of LD50 and MTD [maximum tolerated dose]) of CDDO-compounds was studied in healthy BALB/C mice (male and female, 25-30 g) after single i. v. or oral injections. Seven different dose levels (10 mice/dose level) were used after the appropriate pilot dosing experiments to define a MTD dose for both the oral and iv routes of administration. Animals were observed and weighed daily. The experiment was terminated on day 14. Surviving animals were sacrificed by exposure to carbon dioxide. The unit-dose effect line will be constructed and used to calculate lethal doses LD10 and LD50).
Determination of MTD. 60 female Balb/C mice divided into 12 groups of 5 mice. With 5 mice per dose level, six dose levels for IV or oral drug administration were used.
(§1) Intravenous CDDO administration. Groups of mice received CDDO intravenously as a single bolus injection into the tail vein on Day 1. […] The typical organs from each mouse that are examined include brain, heart, lungs, spleen, pancreas, kidneys, liver, gastrointestinal tract, lymph nodes, muscle, bone marrow, and skin.
as §1, with “CDDO-Me” for “CDDO”

[2] = test system: RXR-expressing HL-60 cells; assay: Acetylation of nuclear histones, Western blot; format: cell-based, human; conditions: alone or with RXR-specific ligand LG-100268
Description: PPARγ must form a heterodimer with RXR to bind DNA and activate transcription (Nolte et al., 1998). RXR-specific ligands markedly induce the binding of the co-activator SRC-1 to PPARγ-RXR heterodimers ([…] et al., 1998), and assembly of this complex results in a large increase in transcriptional activity. […] One method to increase the effects of PPARγ ligands contemplated herein is by combination with ligands specific for RXR. […] TSA, the histone deacetylase inhibitor, served as a positive control. Combination of the PPARγ ligand CDDO with TSA synergistically induce differentiation in HL-60 cells and the present inventors contemplate that this is a result of transcriptional activation of target genes via histone acetylation.

[3] = test system: vascular endothelial cells (HUVECs); assay: Proliferation of cytokine-stimulated vascular endothelial cells ([3H]-Thymidine, microscopy); format: cell-based
Experimental: CDDO. PPARγ nuclear receptor is expressed in bone marrow endothelial cells, and PPARγ ligands inhibit inhibited endothelial cell proliferation. […] The present inventors therefore tested the effects of CDDO in endothelial cell assays. The formation of tube-like endothelial structures was performed using Matrigel®, a basement membrane matrix extracted from the Engelbreth-Holm Swarm mouse sarcoma cell line. Bone marrow endothelial cells with recombinant angiogenic cytokines were incubated in the presence or absence of CDDO, and formation of tube-like endothelial structures was assessed by direct observation using a inverted contrast-phase microscope. […] Vascular endothelial cells (HUVEC) were grown in EBM-2 or EGM-2 media (Clonetics) containing VEGF, EGF, bFGF and IGF-1. The proliferation of endothelial cells was assessed by inverted contrast-phase microscope after 24 hrs of CDDO exposure in the indicated concentrations. CDDO-Me. The formation of tube-like endothelial structures that are associated with angiogenesis was analyzed using a Matrigel system (Kubota et al., 1988). Capillary-like structure formation of bone marrow endothelium was inhibited by CDDO-Me. […] Thus, CDDO-Me also has anti-angiogenic effects.

Daudi cells = assay: cells
Experimental: (§2) Suspension culture of leukemic cells. Leukemic cell lines were cultured at a density of 3.0×10^5 cells/mL, and AML mononuclear cells at 5×10^5 cells/mL in the presence or absence of indicated concentrations of CDDO-Me. Appropriate amounts of DMSO (final concentration<0.05%) was included as a control. For cytotoxicity studies, 1 μM ara-C was added to the cultures.
CDDO-Me. […] Mechanism of growth inhibition was analyzed on cell cycle and apoptosis in HL-60 cells.

AML progenitors = assay: AML blast colony assay; format: cell-based, human
Experimental: AML blast colony assay. A previously described method was used to measure AML blast colony formation. Briefly, 1×10^5 T-cell-depleted, nonadherent, low-density bone marrow cells were plated in 0.8% methylcellulose in Iscove's modified Dulbecco's medium (IMDM; Gibco Laboratories, Grand Island, N.Y.) supplemented with 10% fetal bovine serum and 15 ng/mL recombinant human granulocyte-macrophage colony-stimulating factor (hGM-CSF). CDDO or CDDO-Me was added at the initiation of cultures at concentrations ranging from 0.05 to 0.5 μg/mL. AML blast colonies were evaluated under a microscope on day 7 of culture in duplicate dishes.
The effect of CDDO on clonogenic AML cells were tested. […] (FIG. 7).
(§3) CDDO-Me. […] Effects of CDDO-Me were also tested on clonogenic AML cells.

primary AML cells [4] = assay: Monocytic differentiation (CD14) in primary AML; format: cell-based, human
Experimental: Immunophenotyping. The PE-conjugated anti-CD11b, FITC-conjugated anti-CD14 monoclonal antibody (mAb) (Becton Dickinson) and PE-conjugated anti-CD95 mAb (PharMingen) were used at a 1/10 dilution.
as §3

primary AML cells [5] = assay: Apoptosis in primary AML samples, subG1 DNA flow cytometry; format: cell-based, human
Experimental: Subjects. Samples of bone marrow or peripheral blood were obtained for in vitro studies from patients with newly diagnosed or recurrent AML with high (>70%) blast count and from patients with myeloid transformation of chronic myeloid leukemia (CML). Informed consent was obtained following institutional guidelines. Mononuclear cells were separated by Ficoll-Hypaque (Sigma Chemical Co) density-gradient centrifugation.
as §2
Cell kinetic and DNA fragmentation studies. The cell cycle kinetics was determined by staining cells with acridine orange for cellular DNA and RNA content followed by flow cytometeric analysis as described. […] Ten thousand events were stored in list mode for analysis. The percentage of cells in the “sub G1 peak” defined the proportion of apoptotic cells in the tested populations. […] Cell-cycle kinetics was analyzed using ModFit software (Verity Software House, Inc., Topsham, Me.). […]

CC1(C)CCC2(C(=O)O)CCC3(C)C(C(=O)C=C4C5(C)C=C(C#N)C(=O)C(C)(C)C5CCC43C)C2C1 (stereo not drawn) [CDDO, 2-cyano-3,12-dioxoolen-1,9-dien-28-oic acid]
Diagnoses/observations ([1]; mouse, in vivo, iv, 0.3 mg/kg): Myeloid hyperplasia bone marrow | Diagnoses/observations ([1]; mouse, in vivo, iv, 3 mg/kg): Myeloid hyperplasia, bone marrow | acetylation of histones H3 and H4 [2]: induction of acetylation of histones H3 and H4 | proliferation / structure formation of cytokine-stimulated vascular endothelial cells [3]: diminished the proliferation | Daudi cells alive (Daudi cells; 1 μM): 73.6% | viability at 2 µM (Daudi cells; Homo sapiens, Daudi, read-out: viable cells): 25.3% | colony formation of AML progenitors reduced (AML progenitors; 1 μM, n=6): 58±4.6% | AML samples with induced monocytic differentiation (CD14) (primary AML cells [4]): 3/11 | AML samples in which apoptosis was induced (primary AML cells [5]; 1 μM): 3 of 6 | AML samples in which apoptosis was induced (primary AML cells [5]; 5 μM): 5 of 6 | apoptosis in AML samples (primary AML cells [5]; CDDO 1 μM, ara-C 1 μM, alone or combined, n=23 (DMSO control 27.7±3.7%)): 41.2±4.4% | paired mean difference±SEM in apoptosis (primary AML cells [5]; CDDO vs DMSO): 13.5%±2.8

COC(=O)[C@]12CCC(C)(C)C[C@H]1[C@H]1C(=O)C=C3[C@@]4(C)C=C(C#N)C(=O)C(C)(C)[C@@H]4CC[C@@]3(C)[C@]1(C)CC2 [CDDO-Me]
Diagnoses/observations ([1]; CDDO-Me IV single bolus, 1.0 mg/kg, 14 days): DIED @ 5 minutes | Diagnoses/observations ([1]; mouse, in vivo, iv): Myeloid hyperplasia bone marrow | proliferation / structure formation of cytokine-stimulated vascular endothelial cells [3]: also inhibited | cell number, % of DMSO-controls (Daudi cells; 0.3 μM, 48 hrs): 22.5% | surviving colonies (AML progenitors; 0.1 μM): 46.7%±6.6 | surviving colonies (AML progenitors; 0.3 μM): 27.5%±6.8 | surviving colonies (AML progenitors; 0.5 μM): 8.8%±3.8 | AML samples with induced monocytic differentiation (CD14) (primary AML cells [4]): 2/5 | paired mean difference to DMSO control (mean±SEM), apoptotic cells (primary AML cells [5]; 0.1 μM): 26.9%±10.8 | paired mean difference to DMSO control (mean±SEM), apoptotic cells (primary AML cells [5]; 0.5 μM): 43.2%±5.2 | AML samples in which apoptosis was induced (primary AML cells [5]; 1 μM): 5 of 6 | AML samples in which apoptosis was induced (primary AML cells [5]; 5 μM): 6 of 6 | samples with more than 90% apoptotic cells (primary AML cells [5]; 5 μM): 4/6 | cell killing in AML samples (primary AML cells [5]; CDDO-Me 1 μM, ara-C 1 μM, alone or combined, n=6 (DMSO control 24.9±7.4%)): 50.5±15% | samples with dose-dependent increase in percentage of apoptotic cells (primary AML cells [5]; lower concentrations): 4/4
